The source of these data is US20250361217A1, “FATTY ACID COMPOUNDS” (University of Pittsburgh - Of the Commonwealth System of …, priority 2022, published 2025).

Data set [1] is described as follows: Cassette PK of branched vs straight-chain FA-AA (NAA) conjugates, oral or intraperitoneal. Particulars: 30 mg/kg; for levels in liver, rank among the groups / levels in plasma, rank among the groups: both intraperitoneal and oral administration. The format is in vivo, mice. How it is done:
A library of branched fatty acid-amino acid (FA-AA) conjugates was synthesized, exemplified in the table above. […] The absorption of the selected straight chain vs. branched FA-AA conjugates was compared in a cassette PK study as described below in more detail. A mixture of all the FA-AA conjugates (with or without branching) was concomitantly administered orally to mice (n=4-5, 30 mg/kg each compound). […] The absorption improvement resulting from the branching of the fatty acids was ubiquitous across all the FA-AA conjugates independent of the choice of amino acids. In contrast, all tested FA-AA conjugated dosed intraperitoneally (n=4-5, 30 mg/kg each compound) reached significant levels in circulation, bypassing the first-pass metabolism.
Two cassette PK experiments were performed to compare the pharmacokinetics of dimethyl acyl amino acids (acyl-2M-amino acids) with their natural, non-branched analogs and evaluate the increased half-life, oral bioavailability, and liver concentrations obtained by the invention (introduction of the dimethyl (2M) branching).
Groups of mice (n=4 per time point per group) were used. The compounds were delivered using a cassette pharmacokinetic design by oral gavage or by intraperitoneal injections at a dose of 30 mg/kg. Groups are detailed in table 1. To note, the methyl ester of C18:0-2M-Gly was abbreviated as C18:0-2M-Gly-Me.
The following groups were used, and the time points were 0, 1, 2, and 4 h for intraperitoneal administration and 0, 2, and 4 h for oral administration.

In data set [2] the test system is C57BL6 mice fed with the NASH diet. Briefly: Oral treatment in established NASH mouse model. Particulars: oral 10 mg/kg/day, 6 weeks. The format is in vivo. How it is done:
This study defined the protective properties of branched FA-AA conjugates and the enhanced potency of 11U3-2M conjugated to Leucine (Leu) when administered orally in an established NASH mouse model. C57BL6 mice were fed with the NASH diet for 16 weeks and then orally administered with vehicle (n=10), C18:1-Leu (n=10), C18:1-2M-Leu (n=8) and 11U3-2M-Leu (n=12) (10 mg/kg/day) for 6 weeks while on the NASH diet. Mice were sacrificed and organs were collected for further analysis.

The test system of data set [3] is mice with established NASH. Particulars: intraperitoneal administration; cited from earlier work.

For the compound `CCCc1ccc(CCCCCCCCCC(C)(C)C(=O)NCC(=O)O)o1` [11U3-2M-Gly, (2,2-Dimethyl-11-(5-propylfuran-2-yl)undecanoyl)glycine], in data set [1], the “levels in liver, rank among the groups” value is “highest levels” and the “levels in plasma, rank among the groups” value is listed as “highest levels”.

In the case of `CCCc1ccc(CCCCCCCCCC(C)(C)C(=O)NC(CC(C)C)C(=O)O)o1` (stereo not shown) [11U3-2M-Leu], the “plasma concentration over time (resistance to metabolism) vs 11U3-Leu” value in data set [1] (mice) is “maintained over a longer period”. Moreover, in data set [1], the “levels in liver, rank among the groups” value was “highest levels” and the “levels in plasma, rank among the groups” value was “highest levels”. For the same compound, in data set [1] (intraperitoneal), the “AUC0-4 vs all the straight-chain analogs” value is “significantly higher”, the “Cmax vs all the straight-chain analogs” value was “significantly higher” and the “metabolism vs all the straight-chain analogs” value is “slower metabolism”. In data set [2], the cholesterol levels result is on record as “significantly decreased”; the “expression of genes regulating lipogenesis in liver” value is “suppressed”; the “expression of key genes regulating fatty acid oxidation (PPARα signaling pathway) in liver” value was “significantly induced”; the “fibrosis and cell death genes (e.g., collagens and TGF-b) in liver” value is given as “anti-fibrotic actions”. For the same compound, in data set [2], the “inflammatory effect in the NASH animals (FIG. 23)” value is listed as “anti-inflammatory”, the “liver weight in comparison to vehicle control” value was “significant decrease”, the “liver/body weight ratio in comparison to vehicle control” value is “significant decrease” and the “plasma alanine transaminase (ALT)” value is reported as “significantly decreased”. For the same compound, the “plasma aspartate transaminase (AST)” value in data set [2] was “significantly decreased”.

With `CCCCCCCCC=CCCCCCCC(C)(C)C(=O)N[C@@H](CC(C)C)C(=O)O` [C18:1-2M-Leu, (2,2-dimethyloctadec-9-enoyl)leucine], in data set [2], the “expression of genes regulating lipogenesis in liver” value is given as “suppressed”; the “fibrosis and cell death genes (e.g., collagens and TGF-b) in liver” value is listed as “anti-fibrotic actions”; the “plasma alanine transaminase (ALT)” value is listed as “significantly decreased”; the “plasma aspartate transaminase (AST)” value is “significantly decreased”.

As to `CCCCCCCC/C=C\CCCCCCCC(=O)N[C@@H](CC(C)C)C(=O)O` [C18:1-Leu, N-oleoyl leucine], the “steatosis, inflammation and fibrosis in mice with established NASH” value in data set [3] is “improved steatosis, and lowered inflammation and fibrosis”.
